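In this assay, cells in 96-well plates receive the compound at five concentrations for 48 hours. Endpoints are linearly interpolated between the surrounding concentrations. The concentration for 50% growth inhibition is given as GI50.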 Active and inactive are the calls of the source. No stated cut-off is given here; in the data, active = GI50 up to about 1.1 µM and inactive = higher.
Columns and labels:
Assay in all cases: NCI anticancer screen, dose series, 48 h
T47D = tested on: T47D
BT-549 = tested on: BT-549
Hs-578T = tested on: Hs-578T

With `COC(=O)/C=C(/C)n1nc2ccccc2n1` as the compound, how does the GI50 (T47D) read?
The GI50 was > 100 µM (inactive).

What about the GI50 (BT-549) of the same compound?
The GI50 was > 100 µM (inactive).

And the GI50 (Hs-578T)?
The GI50 was > 100 µM (inactive).

With `O=C1c2ccccc2N1C(=O)c1ccccc1[N+](=O)[O-]` as the compound, how does the GI50 (T47D) read?
The GI50 was > 100 µM (inactive).

What about the GI50 (Hs-578T) of the same compound?
The GI50 was 56.1 µM (inactive).

How did the GI50 (T47D) turn out when `OCC1CCCC(n2cnc3c(S)ncnc32)O1` (centres undefined) was run?
The GI50 was > 100 µM (inactive).

What about the GI50 (BT-549) of the same compound?
Its GI50 is > 100 µM (inactive).

What about the GI50 (Hs-578T) of the same compound?
The GI50 was > 100 µM (inactive).

Which GI50 (T47D) does the source give for `Cc1ccc(NC(=O)c2ccc(OP(=O)(O)Nc3ccc(C)cc3)cc2)cc1` here?
The GI50 was > 100 µM (inactive).

And the GI50 (BT-549)?
The GI50 was > 100 µM (inactive).

What about the GI50 (Hs-578T) of the same compound?
Its GI50 is 92.7 µM (inactive).

What does the source list for `O=C(NCC(O)COc1ccccc1)c1ccccc1O` (centres undefined)?
GI50 (T47D): 42.4 µM (inactive); GI50 (BT-549): 27.7 µM (inactive)

Which results are given for `Cc1ccnc2nc(-c3cccc(Cl)c3)cc(O)c12`?
GI50 (T47D): > 100 µM (inactive); GI50 (BT-549): 1.65 µM (inactive); GI50 (Hs-578T): 0.44 µM (active)

`COc1cc(CSc2ccc(O)cc2)cc(OC)c1OC` was tested. Which GI50 (T47D) did it give?
The GI50 was 22.6 µM (inactive).

And the GI50 (BT-549)?
The GI50 was 16.4 µM (inactive).

What about the GI50 (Hs-578T) of the same compound?
Its GI50 is 41.3 µM (inactive).

Which GI50 (T47D) does the source give for `CC(C)(C)OC(=O)NCC(=O)NC1c2ccsc2/C(=N/O)[C@H]1O` (some centres undefined) here?
The GI50 was > 100 µM (inactive).

And the GI50 (BT-549)?
Its GI50 is > 100 µM (inactive).

Which GI50 (T47D) does the source give for `O=C(CSCC(=O)N/N=C/c1cccc(OCc2ccccc2)c1)N/N=C/c1cccc(OCc2ccccc2)c1` here?
Its GI50 is 38.9 µM (inactive).

And the GI50 (BT-549)?
The GI50 was 68.1 µM (inactive).

And the GI50 (Hs-578T)?
Its GI50 is > 100 µM (inactive).

What does the source list for `Cc1cc(C)c2c(O)cc(-c3ccc4ccccc4c3)nc2n1`?
GI50 (T47D): 17.3 µM (inactive); GI50 (BT-549): 40.5 µM (inactive); GI50 (Hs-578T): 16.4 µM (inactive)

For `OC(CCN1CCN(CCOC(c2ccc(F)cc2)c2ccc(F)cc2)CC1)c1ccccc1` (centres undefined), which GI50 (T47D) is on record?
The GI50 was 12.3 µM (inactive).

And the GI50 (BT-549)?
Its GI50 is 14.1 µM (inactive).

And the GI50 (Hs-578T)?
The GI50 was 16 µM (inactive).

For `c1ccc(/C(=N/Nc2cnccn2)c2ncccn2)cc1`, which GI50 (BT-549) is on record?
The GI50 was > 100 µM (inactive).

And the GI50 (Hs-578T)?
Its GI50 is 23.1 µM (inactive).

For `CCOC(=O)C1CCC(=O)N1C(=O)c1ccc(Cl)cc1` (centres undefined), which GI50 (T47D) is on record?
Its GI50 is > 100 µM (inactive).

And the GI50 (BT-549)?
The GI50 was > 100 µM (inactive).

And the GI50 (Hs-578T)?
The GI50 was > 100 µM (inactive).

For `Cc1nc(N)nc(S)c1CCCNc1ccccc1`, which GI50 (T47D) is on record?
The GI50 was 20.4 µM (inactive).

What about the GI50 (BT-549) of the same compound?
Its GI50 is 70 µM (inactive).

And the GI50 (Hs-578T)?
The GI50 was > 100 µM (inactive).

With `Cc1ccc(S(=O)(=O)NC(=O)C2=C3SCCN3C(=O)N(S(=O)(=O)c3ccc(C)cc3)C2c2ccccc2)cc1` (centres undefined) as the compound, how does the GI50 (T47D) read?
Its GI50 is > 100 µM (inactive).

And the GI50 (BT-549)?
Its GI50 is > 100 µM (inactive).

What about the GI50 (Hs-578T) of the same compound?
The GI50 was 48.4 µM (inactive).

How did the GI50 (BT-549) turn out when `COC(=O)c1c(O)ccc2c1c1c(n2Cc2ccc(OC)cc2)C(=O)c2ccccc2C1` was run?
Its GI50 is > 100 µM (inactive).

What about the GI50 (Hs-578T) of the same compound?
The GI50 was > 100 µM (inactive).

How did the GI50 (T47D) turn out when `COc1ccc(-c2nnc(-c3ccncc3)o2)cc1` was run?
The GI50 was > 100 µM (inactive).

What about the GI50 (BT-549) of the same compound?
The GI50 was > 100 µM (inactive).

And the GI50 (Hs-578T)?
Its GI50 is > 100 µM (inactive).

With `NC(=O)CC[C@H]1C(=O)N=C(N)N1C(=O)OCc1ccccc1` as the compound, how does the GI50 (BT-549) read?
The GI50 was > 100 µM (inactive).

What about the GI50 (Hs-578T) of the same compound?
Its GI50 is > 100 µM (inactive).

With `CC(C)(C)[Si](C)(C)OCC1OC(n2cnc3c(N)ncnc32)C(O)C1O` (centres undefined) as the compound, how does the GI50 (T47D) read?
The GI50 was 24.4 µM (inactive).

And the GI50 (BT-549)?
The GI50 was 69.5 µM (inactive).

And the GI50 (Hs-578T)?
Its GI50 is 44.5 µM (inactive).

Which results are given for `COc1ccc2c(c1)c1c(n2CCN(C)C)-c2cccc(OC)c2CC1`?
GI50 (T47D): 10 µM (inactive); GI50 (BT-549): 20 µM (inactive); GI50 (Hs-578T): 16.3 µM (inactive)

`NNc1nnc(CCCCCCCCc2nnc(NN)n2N)n1N` was tested. Which GI50 (BT-549) did it give?
Its GI50 is 26.1 µM (inactive).

With `CC(=O)c1ccc(N2CCN(C3=CC(=O)c4c(O)ccc(O)c4C3=O)CC2)cc1` as the compound, how does the GI50 (T47D) read?
Its GI50 is > 100 µM (inactive).

How did the GI50 (T47D) turn out when `CC(=O)NNC1=NN(C(C)=O)C2(S1)C(=O)Nc1ccccc12` (centres undefined) was run?
Its GI50 is > 100 µM (inactive).

How did the GI50 (BT-549) turn out when `COc1c(C)c(C/C=C(\C)CCCC(C)CCCC(C)CCCC(C)C)c(OC)c2ccccc12` (centres undefined) was run?
Its GI50 is > 100 µM (inactive).

What about the GI50 (Hs-578T) of the same compound?
Its GI50 is > 100 µM (inactive).

Which GI50 (T47D) does the source give for `O=C(Nc1ccn(C2CCC(COC(c3ccccc3)(c3ccccc3)c3ccccc3)O2)c(=O)n1)c1ccccc1` (centres undefined) here?
Its GI50 is 7.46 µM (inactive).

What about the GI50 (Hs-578T) of the same compound?
Its GI50 is 3.54 µM (inactive).

With `CNc1ncnc2c1nc(NC1CCCC1)n2C1OC(CO)C(O)C1O` (centres undefined) as the compound, how does the GI50 (T47D) read?
Its GI50 is > 100 µM (inactive).

With `CC(C)(C)c1cc2c(c(C(C)(C)C)c1O)CC(=O)O2` as the compound, how does the GI50 (T47D) read?
Its GI50 is 23.2 µM (inactive).

What about the GI50 (Hs-578T) of the same compound?
Its GI50 is 26.4 µM (inactive).

For `O=C1c2ccccc2OCC12OC21C=CC(Cl)=CC1` (centres undefined), which GI50 (BT-549) is on record?
The GI50 was 37.9 µM (inactive).

How did the GI50 (T47D) turn out when `Cc1ccc(NC(=S)C#N)cc1Cl` was run?
The GI50 was 32.4 µM (inactive).

What about the GI50 (BT-549) of the same compound?
Its GI50 is 53 µM (inactive).

What does the source list for `CO[C@H]1O[C@@H]2OC3(C)CCC4[C@H](C)CCC([C@H]1C)[C@]42OO3` (some centres undefined)?
GI50 (T47D): 91.6 µM (inactive); GI50 (Hs-578T): > 100 µM (inactive)
